From US10092540B2, “Method of treatment of a mucopolysaccharidosis” (INVENTIVA, priority 2013, dated 2018)

Legend:
[1] = system: GM00034B and GM01391 fibroblast cells, isolated from two MPS I patients; assay: CS, DS and HS content by UPLC MSMS in MPS I fibroblasts; assay type: cell-based, human; details: 10 μM, 72 h, FIG. 4
Protocol: (§1) Human dermal fibroblasts (GM00034B and GM01391 fibroblast cells, isolated from two MPS I patients and GM03181 and GM00615 fibroblasts isolated from two MPS II patients) were obtained from the Coriell Institute for Medical Research. Cells were cultured in T25-flask for 24 h. The culture medium was then replaced with culture medium containing or not containing (vehicle) odiparcil at 10 μM, and then the cells were incubated for 72 h. After incubation, culture media were discarded and the cells were rinsed with PBS, then scrapped in PBS. Cells were then collected by centrifugation and cell pellets were frozen until further analysis. Quantitation of Heparan sulfate (HS), Dermatan sulfate (DS) and Chondroitin sulfate (CS) were performed using UPLC MSMS using a method adapted from method published in Zhang et al. 2015. Glycosaminoglycan values are expressed as mean+SD in μg GAG species per milligram protein.

[2] = system: Normal human dermal fibroblasts (BIOAlternatives PF2); assay: Total GAG synthesis (3H-glucosamine incorporation) by normal human dermal fibroblasts; assay type: cell-based; details: 10 μM, 72 h
Protocol: Normal human dermal fibroblasts (BIOAlternatives PF2) were cultured in 96-well plates for 24 h. The culture medium was then replaced with culture medium containing or not containing (control) odiparcil at various concentrations (1 μM, 3 μM, 10 μM) or the TGF-β reference at 10 ng/ml (positive control), and then the cells were incubated for 72 h with addition of the ^3H-glucosamine radioactive label for evaluating total GAG synthesis. At the end of the incubation, a chaotropic buffer was added to the wells of the culture plates in order to lyse the fibroblasts. The total GAGs of the cell lysates were then purified by ion exchange chromatography (Q-Sepharose column). The radioactivity incorporated into the anionic fractions was measured by liquid scintillation.

[3] = system: GM00034B fibroblast cells, isolated from an MPS I patient; assay: Intracellular chondroitin sulfate content (immunofluorescence) in fibroblasts from an MPS I patient; assay type: cell-based, human; details: 72 h
Protocol: (§2) Human dermal fibroblasts (GM00034B fibroblast cells, isolated from an MPS I patient and GM00031 fibroblast cells, isolated from an unaffected donor) were obtained from the Coriell Institute for Medical Research. Cells were cultured in 96-well plates for 24 h. The culture medium was then replaced with culture medium containing or not containing (vehicle) odiparcil at various concentrations (0.03, 0.1, 0.3, 1, 3, or 10 μM), and then the cells were incubated for 72 h. After incubation, culture media were discarded and the cells were rinsed with PBS, then fixed in PFA 4%. A part of the wells was then incubated for 2 hours at 37° C. with an enzymatic solution of chondroitinase ABC (CSase). After 2 hours of digestion with CSase ABC buffers were discarded, then the cells were rinsed with PBS and permeabilized with PBS-Triton 0.1%. The cells were then labeled using a primary anti-chondroitin sulfate antibody.

male C57B16/J mice [4] = assay: Urinary sulfated GAG levels in tilorone-induced mucopolysaccharidosis mouse model; assay type: in vivo
Protocol: (§3) The effect of odiparcil on GAG storage was assessed in a model of mucopolysaccharidosis induced by Tilorone. Chronic administration of tilorone induces GAGs accumulation in various organs including liver, spleen, and kidney (Fischer et al. 1996, 315 (Pt 2):369-375; Prokopek 1991, 42:2187-2191). Tilorone (50 mg/kg/day) was administered via drinking water and odiparcil at 30 or 100 mg/kg/day (corresponding to 15 mg/kg and 50 mg/kg given bid, respectively) was given by oral gavage. Tilorone, odiparcil or vehicle were administered to male C57B16/J mice for 28 days.
After 21 days of treatment, urine were collected over a 24 hour period by placing the animal in diuresis/metabolic cages. The activity of odiparcil was assessed by quantifying total sulfated GAG levels in the collected urine. After a 10 to 20 fold dilution of the urine in water, sulfated glycosaminoglycan concentrations were measured using Blyscan™ assay from Biocolor (UK) following the manufacturer's instructions. Creatinine levels were also assessed on undiluted urine samples, using the CREATININE (Jaffé) kit (ref 981811) from ThermoFisher according to the manufacturer's instructions. Urinary sulfated GAG levels were normalized by creatinine levels. The data were analyzed statistically by one-way analysis of variance followed by a Tukey's test between all groups: ***: p<0.001 for vehicle/vehicle, and $$$: p<0.001 for tilorone/vehicle.

[5] = system: GM00031 fibroblast cells, isolated from an unaffected donor; assay: Intracellular chondroitin sulfate content (immunofluorescence) in control fibroblasts; assay type: cell-based, human; details: 72 h
Protocol: as §2

[6] = system: Bovine aortic endothelial cells (ECACC 92010601); assay: 35S-labeled GAG level in culture supernatant of bovine aortic endothelial cells; assay type: cell-based
Protocol: Bovine aortic endothelial cells (ECACC 92010601), cultured in 6-well plates, were incubated for 24 h in the presence of ^35S sodium sulfate (10 μci/ml) and of odiparcil solubilized in DMSO at various concentrations (1-10 μM; 0.1% final concentration of DMSO). The culture supernatants were recovered and the cell layers were rinsed with phosphate buffer (PBS). The culture supernatants and the rinsing solutions were combined in tubes. A solution of unlabeled dermatan sulfate (200 μg) was then added in order to serve as an entraining agent. The unincorporated ^35S was then removed by gel filtration on Sephadex G25 columns, the GAGs being eluted in the column exclusion fraction (V0). […] After centrifugation, the alcoholic precipitates were redissolved in 0.9% sodium chloride and then the radioactivity was measured on an aliquot fraction after addition of scintillation fluid in counting vials.
In order to type the GAGs produced in the supernatants from cells in culture, the redissolved alcoholic precipitates were treated with chondroitinase ABC (Proteus vulgaris) in a proportion of 0.5 mU/μL, for 3 h at 37° C. […] After centrifugation, the alcoholic precipitates were redissolved in 0.9% sodium chloride and then the radioactivity was measured on an aliquot fraction after addition of scintillation fluid in counting vials. […]

New Zealand Rabbits = assay: Plasma GAG level and disaccharide composition in rabbits after oral administration; assay type: in vivo, rabbit; details: 400 mg/kg oral
Protocol: Odiparcil was administered Orally to New Zealand Rabbits at the Dose of 400 mg/kg. 4 h after the administration, the animals were anesthetized and blood samples were taken on citrate tubes after catherization of the carotid artery. After centrifugation, the plasma was removed and frozen. The plasma GAGs were isolated after digestion of the proteins with Pronase E, for 48 h at 50° C. The proteins and the protein residues were precipitated by adding trichloroacetic acid and incubated overnight at 4° C. After centrifugation, the supernatants were collected, and then dialyzed against 100 volumes of phosphate buffer, for 48 h at 4° C. A solution of cetylpyridinium chloride (0.1% final concentration) was added to the dialysates in order to precipitate the GAGs, for 24 h at ambient temperature. The samples were then centrifuged and the supernatant was removed. The precipitate obtained was redissolved in 2M sodium chloride and the GAGs were precipitated with 5 volumes of 95% ethanol. After centrifugation, the alcoholic precipitates were redissolved in 0.9% sodium chloride and desalified on a Sephadex G25 column (PD10).
The plasma GAGs extracted were quantified by assaying the uronic acid content, modified Bitter and Muir carbazole method. The qualitative analysis of the plasma GAG extracts was carried out by HPLC of the disaccharides obtained after enzymatic digestion with chrondroitinase ABC from Proteus vulgaris and chrondroitinase AC from Arthrobacter aurescens.

male C57B16/J mice [7] = assay: Liver total sulfated GAG levels in tilorone-induced mucopolysaccharidosis mouse model; assay type: in vivo
Protocol: as §3
At the end of the study period, animals were anesthetized and sacrificed. The liver of each animal was then collected, rinsed in physiological serum, blotted in absorbent paper and weighted. It was then cut in pieces and cooled by snap-freezing in liquid nitrogen before being stored at −80° C. The activity of odiparcil was assessed by quantifying total sulfated glycosaminoglycan (GAG) levels in the liver. Sulfated glycosaminoglycan concentration was measured using the Blyscan™ assay from Biocolor (UK) following the manufacturer's instructions. The data were statistically analyzed by one-way analysis of variance followed by a Tukey's test between all groups: ***: p<0.001 vs vehicle/vehicle, and $: p<0.05 vs tilorone/vehicle.

[8] = system: GM03181 and GM00615 fibroblasts isolated from two MPS II patients; assay: CS, DS and HS content by UPLC MSMS in MPS II fibroblasts; assay type: cell-based, human; details: 10 μM, 72 h, FIG. 4
Protocol: as §1

[9] = tilorone 50 mg/kg/day via drinking water, vs vehicle/vehicle

Compound: Cc1cc(=O)oc2cc(O[C@@H]3SC[C@@H](O)[C@H](O)[C@H]3O)ccc12 [Odiparcil, 4-methyl-2-oxo-2H-1-benzopyran-7-yl-5-thio-β-D-xylopyranoside]
- chondroitin sulfate (CS) content [1]: inhibited
- dermatan sulfate (DS) content [1]: inhibited
- heparan sulfate (HS) content [1]: inhibited
- total GAG synthesis (dose dependence) ([2]; 1 μM, 3 μM, FIG. 2): stimulates, in a dose-dependent manner
- stimulation of total GAG synthesis vs control [2]: +94%
- intracellular chondroitin sulfate (CS) content ([3]; 0.03-10 μM, FIG. 3): inhibited, in a dose-dependent manner
- IC50 for reduction of intracellular CS [3]: in the μM range
- extent of reduction of intracellular CS [3]: complete reduction
- statistical significance of effect on urinary sulfated GAG levels vs tilorone/vehicle (male C57B16/J mice [4]; odiparcil 30 and 100 mg/kg/day, p<0.001): statistically significant at both tested doses
- sulfated GAG levels in urine (normalized by creatinine) (male C57B16/J mice [4]; odiparcil 30 or 100 mg/kg/day oral gavage with tilorone, urine after 21 days, FIG. 5): increased sulfated GAG levels in urine in a dose-dependent manner
- intracellular chondroitin sulfate (CS) content ([5]; 0.03-10 μM, FIG. 3): inhibited, in a dose-dependent manner
- IC50 for reduction of intracellular CS [5]: in the μM range
- extent of reduction of intracellular CS [5]: complete reduction
- type of GAGs synthesized by the cells in culture (enzymatic digestions) ([6]; chondroitinase ABC / heparinase II digestion): predominantly of chondroitin sulfate type
- level of 35S-labeled GAGs in the culture supernatant ([6]; odiparcil 1-10 μM, 24 h, FIG. 1): increases, in a dose-dependent manner
- Δdi-0S (%) nonsulfated disaccharides (New Zealand Rabbits; rabbit plasma GAGs, 4 h): 18.6%
- Δdi-4S (%) 4-sulfated disaccharides (New Zealand Rabbits; rabbit plasma GAGs, 4 h): 26%
- Δdi-4S DS (%) 4-sulfated disaccharides (dermatan sulfate component) (New Zealand Rabbits; rabbit plasma GAGs, 4 h): 20.5%
- Δdi-6S (%) 6-sulfated disaccharides (galactosamine-6-sulfate component) (New Zealand Rabbits; rabbit plasma GAGs, 4 h): 30.8%
- Δdi-UA2S (%) 2UA-sulfated disaccharides (New Zealand Rabbits; rabbit plasma GAGs, 4 h): 4.1%
- factor of increase of plasma GAG level compared with control animals (New Zealand Rabbits; rabbit, 4 h): 5
- μg UA/ml plasma (plasma GAG level via uronic acid content) (New Zealand Rabbits; rabbit, 4 h after administration): 11.4 μg UA/ml
- statistical significance of effect on total GAG liver content vs tilorone/vehicle (male C57B16/J mice [7]; odiparcil 100 mg/kg/day, p<0.05): statistically significant
- tilorone-induced accumulation of liver total GAG levels (male C57B16/J mice [7]; odiparcil 30 or 100 mg/kg/day oral gavage with tilorone, end of study, FIG. 6): decreased
- chondroitin sulfate (CS) content [8]: inhibited
- dermatan sulfate (DS) content [8]: inhibited
- heparan sulfate (HS) content [8]: inhibited

Compound: CCN(CC)CCOc1ccc2c(c1)C(=O)c1cc(OCCN(CC)CC)ccc1-2 [Tilorone, reference compound]
- GAG levels in urine (male C57B16/J mice [4]; [9]): increased
- GAG levels in the liver (male C57B16/J mice [7]; [9]): increased
